The subject of the experiment is baculovirus. The experiment is described as follows: TCID50 assay of infectious baculovirus titer after lysis (baculovirus clearance). Particulars: for baculovirus clearance, TCID50 results: study 1, after detergent treatment (FIG. 3); for baculovirus clearance, TCID50 samples: study 2, CLB, all concentrations tested (0.25% through 1%), bulk material 7.8 log TCID50/mL. It is filed as cell-based. From the text: A reduction in titer of a rod-like shaped virus, i.e., the factor by which the titer of the virus to be removed is decreased, is preferably at least 5 logs, e.g. after a mixed population of parvoviral particles and 10×10^1 baculoviral virions had been separated in accordance with a method of the invention, no baculoviral virions were then detected in the filtrate. Preferably, the reduction in titer of a rod-like shaped virus that is achieved by a method of the invention is at least 5.5 logs, at least 6 logs, at least 6.5 logs, at least 7 logs, at least 8 logs, at least 9 logs, most preferably at least 10 logs. The titer can be determined by general methods known in the art, such as for example by a Tissue Culture Infectious Dose 50% (TCID50) assay. For example, the infectious baculovirus titer of a population of baculoviral virions in a sample can be determined using a TCID50 assay. This method is based on the infection of monolayers of Sf9 insect cells with infectious baculovirus in a positive control sample. A serial dilution in culture medium of the positive control sample is used to infect the cells. The cells are incubated at +28° C. for 7 days. Subsequently, the supernatants are transferred to newly prepared plates with monolayers of Sf9 insect cells and incubated at +28° C. for 7 days. As infection proceeds, the infected cells are not able to remain attached to each other and to the plate surface and form loose cells, i.e., show cytopathogenic effect (CPE), which can be observed microscopically. The titer in log 10 TCID50/mL is calculated using the Spearman-KArber method.
Analytics performed on samples during these studies included: qPCR to determine vector genome copies (GC) concentration (GC/mL), SEC-HPLC was used to determine total particle (TP) content (TP/mL) which includes empty and full particles which can only be done of samples after affinity chromatography. A TCID50 assay is a measure of infectious baculovirus titer and is used to test clearance of baculovirus after the lysis step where the detergent is added. Potency was determined based on the ability of the product to mediate production of active transgene polypeptide product (here FIX) by Huh-7 cells as compared to a reference sample. Huh-7 cells are infected and cultured to allow production of transgene polypeptide which is then quantified using a commercially obtained activity assay (221805 or 221806 from Hyphen Biomed). LDAO clearance in the drug substance (DS) was measured with an outsourced commercially available chromatographic method.
4.1 different surfactants can be used This first study involved crude bulk material generation using a shaker flask-based protocol following the process outlined in Example 1, until affinity chromatography; where the batch binding method was used. […]

In the case of `CCCCCCCCCCCCO[C@@H]1O[C@H](CO)[C@@H](O[C@H]2O[C@H](CO)[C@@H](O)[C@H](O)[C@H]2O)[C@H](O)[C@H]1O` [DDM, n-dodecyl-beta-D-maltoside], the “baculovirus clearance, TCID50 results” value is listed as “below the limit of detection” and the “baculovirus clearance, TCID50 samples” value was “below the limit of detection”.

Take `CCCCCCCCCCCC[N+](C)(C)[O-]` [LDAO, lauryldimethylamine oxide]: the “baculovirus clearance, TCID50 results” value is reported as “below the limit of detection” and the “baculovirus clearance, TCID50 samples” value was “below the limit of detection”.

(Values after US20240287545A1, “Improved lysis procedures” (uniQure biopharma B.V., priority 2021, published 2024).)
